Measurements reported in PubChem BioAssay (NCI).
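Dose response: 5 concentrations. Exposure: 48 h. Format: 96-well plates. Endpoint: linear interpolation; highest concentration if not reached. Here, GI50 denotes the concentration required for 50% inhibition of growth. TGI: total growth inhibition.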

Tests used:
Test in all cases: inhibition of tumour cell growth, NCI panel, 48 h
DU-145 prostate = test system: DU-145 prostate
EKVX NSCLC = test system: EKVX NSCLC
HL-60(TB) leukemia = test system: HL-60(TB) leukemia
HT29 colon = test system: HT29 colon
MCF7 breast = test system: MCF7 breast
NCI-H23 lung = test system: NCI-H23 lung
PC-3 prostate = test system: PC-3 prostate
SK-MEL-2 melanoma = test system: SK-MEL-2 melanoma
UO-31 renal = test system: UO-31 renal
OVCAR-5 ovarian = test system: OVCAR-5 ovarian

SMILES	TGI (DU-145 prostate) [µM]	TGI (EKVX NSCLC) [µM]	TGI (HL-60(TB) leukemia) [µM]	TGI (HT29 colon) [µM]	TGI (MCF7 breast) [µM]	TGI (NCI-H23 lung) [µM]	TGI (PC-3 prostate) [µM]	TGI (SK-MEL-2 melanoma) [µM]	TGI (UO-31 renal) [µM]	TGI (OVCAR-5 ovarian) [µM]	GI50 (DU-145 prostate) [µM]	GI50 (EKVX NSCLC) [µM]	GI50 (HL-60(TB) leukemia) [µM]	GI50 (MCF7 breast) [µM]	GI50 (NCI-H23 lung) [µM]	GI50 (OVCAR-5 ovarian) [µM]	GI50 (PC-3 prostate) [µM]	GI50 (UO-31 renal) [µM]
CCN(CC)c1ccc(NC(=S)NN(C)C)cc1	> 10	> 10	> 10	> 10	> 10	> 10	> 10	> 10	> 10									
c1c(N2CCOCC2)ssc1=[N+]1CCOCC1		> 100	> 100	> 100		> 100		> 100	> 100	> 100								
Oc1c(OCc2nnc(CCCCCCCCc3nnc(COc4ccc5ccccc5c4O)o3)o2)ccc2ccccc12	> 100	> 100		> 100	> 100	> 100	> 100	> 100	> 100	> 100								
CN(C)CCCNc1cc(O)c2c(c1O)C(=O)c1ccccc1C2=O	28	31.1		24	35.9	27.9	27.5	35.7	11.9	33.7								
CC(=O)OC1CC2(O)C(CCC3(C)C(c4ccc(=O)oc4)CCC32O)C2(C)C1=CC(O)C1OC12 (stereo not drawn)		0.157	1.28	2.89	0.402	0.0618		0.222	0.323	0.772								
N#Cc1nc(CCCN2C(=O)c3ccccc3C2=O)oc1N	> 100	> 100		> 100	> 100	> 100	> 100	> 100	> 100	> 100								
Cc1ccc2c(c1C)CC1(Cc3c(C)ccc(C)c3C1=O)C2=O (stereo not drawn)	> 100	> 100	> 100	> 100	> 100	> 100			> 100	> 100								
O=c1c(-c2ccccc2)c(SCCN2CCCCCC2)n(-c2ccccc2)c(=S)n1-c1ccccc1	66.1	35.7	46.9		> 100	> 100				44.3								
O=c1[nH]c(=O)n(C2CC(O)C(CO)O2)cc1OC/C=C/Cc1ccccc1 (stereo not drawn)	> 100	> 100	> 100	> 100	> 100	> 100	> 100		> 100	> 100								
CCN(CCCCCCCCCCN1CC(=O)N(CCCCCCCCCCN(CC)Cc2ccccc2OC)CC1=O)Cc1ccccc1OC	2.78	8.14	3.6		2.81	4.52	2.59		3.25	15.1	1.39	1.82	1.02	1.2	1.81	3.36	1.14	1.09
N#Cc1ccc(-c2nc(C#N)c(N)o2)cc1	> 10	> 10	> 10	> 10	> 10	> 10	> 10		> 10									
CC(C)=CCC12Cc3ccc(O)cc3C(C(C)CN1)C2C (stereo not drawn)	> 100	> 100	> 100	> 100	> 100	> 100			> 100	> 100								
CCCCCCc1cc2cc(-c3csc(-c4ccc(OC)cc4)n3)c(=O)oc2cc1O	33.6	45.1	> 100	> 100	53.2		41.5	32	19.8	79.9								
COc1ccc(OC/C(N=Cc2ccncc2)=N/NC(=O)c2ccncc2)cc1	> 100	> 100	> 100	> 100	> 100	> 100	> 100	> 100		> 100								
COc1ccc(OC)c(NC(=O)C(=O)C(C(=O)c2ccccc2F)C2OC(=O)c3ccccc32)c1 (stereo not drawn)		> 100	> 100	> 100		> 100		> 100	> 100	> 100								
C=C(C)[C@H]1CC(=O)/C(C)=C\CC/C(C)=C/CC[C@@]2(C)O[C@@H]2C1	33.4		66.2	33.7		51.8	64.5	> 100	48.4	94.8								
CCOc1snc(C(Cl)(Cl)Cl)c1Cl	> 100	79.4	37.7	28.9	78.9	44.3	> 100		45.5	> 100								
